Results on one substance are retold here after patent publication EP2578599A1 (LanthioPep B.V., priority 2011, dated 2013).

The target in series [1] is carboxypeptidase Y (cpY) (Saccharomyces cerevisiae, UniProt P00729). Kind of series: Proteolytic resistance: incubation of peptide conformations with carboxypeptidase Y. It counts as in vitro ADME. The following applies: HPLC peaks of nisin leader - GLP-1 fragment (29-36) peptide treated with cpY. The procedure:
Production of peptide in Lactococcus lactis and characterization of the peptide were performed as described in Plat et al. (Polymers 2011, 3, 1282-1296).
After overnight incubation of the purified peptide containing a lysinoalanine at RT in 0.25 % ammonia (w/v) the sample was applied on a C18 column (Alltech, alltima analytical C18 column 5 µm). Peaks were collected and analyzed by mass spectrometry. Different conformations of the peptide were incubated with trypsin and cpY (Figure 2).

Series [2] has as its system trypsin. The series is described as follows: Proteolytic resistance: incubation of peptide conformations with trypsin. Type of series: in vitro ADME. The procedure:
Production of peptide in Lactococcus lactis and characterization of the peptide were performed as described in Plat et al. (Polymers 2011, 3, 1282-1296). […] After inducing dehydration the peptide was harvested from the medium and characterized. After overnight incubation of the purified peptide containing a lysinoalanine at RT in 0.25 % ammonia (w/v) the sample was applied on a C18 column ([…] analytical C18 column 5 μm). Peaks were collected and analyzed by mass spectrometry. Different conformations of the peptide were incubated with trypsin and cpY (Figure 2).

carboxypeptidase Y (cpY), sequence (P00729 112-532): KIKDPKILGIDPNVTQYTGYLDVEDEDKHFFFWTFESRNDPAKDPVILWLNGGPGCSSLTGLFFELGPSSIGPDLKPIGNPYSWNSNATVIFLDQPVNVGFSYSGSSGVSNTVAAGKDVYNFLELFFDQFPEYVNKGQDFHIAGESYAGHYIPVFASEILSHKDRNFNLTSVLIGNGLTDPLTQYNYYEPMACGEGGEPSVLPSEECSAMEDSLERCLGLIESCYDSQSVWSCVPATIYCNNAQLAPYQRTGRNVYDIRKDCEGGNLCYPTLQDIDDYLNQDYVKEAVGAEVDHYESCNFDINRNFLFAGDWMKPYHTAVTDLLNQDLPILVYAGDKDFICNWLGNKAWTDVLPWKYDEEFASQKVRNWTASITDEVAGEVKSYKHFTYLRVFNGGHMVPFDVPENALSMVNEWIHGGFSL

In the case of “nisin leader - I Dha W L V K G R [lysinoalanine-bridged GLP-1 peptide]”, the “protection against carboxypeptidase Y (cpY)” value in series [1] is recorded as “resistant”. The protection against trypsin result in series [2] is “resistant”.
